Reference: PubChem BioAssay (NCI)
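Here, GI50 denotes the concentration required for 50% inhibition of growth. TGI denotes the concentration required for complete inhibition of growth.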

How the values were obtained:
Test in all cases: NCI anticancer screen, dose series, 384-well format
RXF 393 renal = tested on: RXF 393 renal
SK-OV-3 ovarian = tested on: SK-OV-3 ovarian
HOP-62 NSCLC = tested on: HOP-62 NSCLC
OVCAR-4 ovarian = tested on: OVCAR-4 ovarian
MOLT-4 leukemia = tested on: MOLT-4 leukemia
SN12C renal = tested on: SN12C renal
TK-10 renal = tested on: TK-10 renal
UACC-62 melanoma = tested on: UACC-62 melanoma
SK-MEL-28 melanoma = tested on: SK-MEL-28 melanoma
SK-MEL-5 melanoma = tested on: SK-MEL-5 melanoma
HS 578T breast = tested on: HS 578T breast
RPMI-8226 leukemia = tested on: RPMI-8226 leukemia
UO-31 renal = tested on: UO-31 renal
EKVX NSCLC = tested on: EKVX NSCLC
UACC-257 melanoma = tested on: UACC-257 melanoma
M14 melanoma = tested on: M14 melanoma
HT29 colon = tested on: HT29 colon
OVCAR-3 ovarian = tested on: OVCAR-3 ovarian
NCI/ADR-RES ovarian = tested on: NCI/ADR-RES ovarian
OVCAR-8 ovarian = tested on: OVCAR-8 ovarian
COLO 205 colon = tested on: COLO 205 colon
CCRF-CEM leukemia = tested on: CCRF-CEM leukemia
A549 NSCLC = tested on: A549 NSCLC
MDA-MB-435 melanoma = tested on: MDA-MB-435 melanoma
NCI-H23 lung = tested on: NCI-H23 lung
IGROV1 ovarian = tested on: IGROV1 ovarian
K-562 leukemia = tested on: K-562 leukemia
SF-539 CNS = tested on: SF-539 CNS
MDA-MB-231 breast = tested on: MDA-MB-231 breast
BT-549 breast = tested on: BT-549 breast
ACHN renal = tested on: ACHN renal
SF-268 CNS = tested on: SF-268 CNS
A498 renal = tested on: A498 renal
SNB-19 CNS = tested on: SNB-19 CNS
KM12 colon = tested on: KM12 colon
NCI-H460 NSCLC = tested on: NCI-H460 NSCLC
SR leukemia = tested on: SR leukemia
CAKI-1 renal = tested on: CAKI-1 renal
NCI-H226 lung = tested on: NCI-H226 lung
PC-3 prostate = tested on: PC-3 prostate
786-0 renal = tested on: 786-0 renal
SNB-75 CNS = tested on: SNB-75 CNS
NCI-H322M lung = tested on: NCI-H322M lung
MALME-3M melanoma = tested on: MALME-3M melanoma
SF-295 CNS = tested on: SF-295 CNS
HOP-92 NSCLC = tested on: HOP-92 NSCLC
HL-60(TB) leukemia = tested on: HL-60(TB) leukemia
NCI-H522 lung = tested on: NCI-H522 lung
T-47D breast = tested on: T-47D breast
DU-145 prostate = tested on: DU-145 prostate
MCF7 breast = tested on: MCF7 breast
HCC-2998 colon = tested on: HCC-2998 colon
MDA-MB-468 breast = tested on: MDA-MB-468 breast
SW-620 colon = tested on: SW-620 colon
HCT-15 colon = tested on: HCT-15 colon
LOX IMVI melanoma = tested on: LOX IMVI melanoma
OVCAR-5 ovarian = tested on: OVCAR-5 ovarian

SMILES: C=CC(=O)N[C@H]1C=C(C)c2c(-c3cnc4ccccc4c3)c3c(N)ncnc3n2C1
- GI50 (RXF 393 renal): 10 µM
- TGI (RXF 393 renal): 27.7 µM
- GI50 (SK-OV-3 ovarian): 1.61 µM
- TGI (SK-OV-3 ovarian): 15.1 µM
- GI50 (HOP-62 NSCLC): 17.1 µM
- TGI (HOP-62 NSCLC): 76 µM
- GI50 (OVCAR-4 ovarian): 16.2 µM
- TGI (OVCAR-4 ovarian): 65.5 µM
- GI50 (MOLT-4 leukemia): 5.47 µM
- TGI (MOLT-4 leukemia): 17.5 µM
- GI50 (SN12C renal): 15.6 µM
- TGI (SN12C renal): 63.9 µM
- GI50 (TK-10 renal): 0.228 µM
- TGI (TK-10 renal): 10.6 µM
- GI50 (UACC-62 melanoma): 6 µM
- TGI (UACC-62 melanoma): 18.9 µM
- GI50 (SK-MEL-28 melanoma): 14.2 µM
- TGI (SK-MEL-28 melanoma): 46.2 µM
- GI50 (SK-MEL-5 melanoma): 13.2 µM
- TGI (SK-MEL-5 melanoma): 26 µM
- GI50 (HS 578T breast): 12.8 µM
- TGI (HS 578T breast): 26.4 µM
- GI50 (RPMI-8226 leukemia): 10 µM
- TGI (RPMI-8226 leukemia): 22.1 µM
- GI50 (UO-31 renal): 12.2 µM
- TGI (UO-31 renal): > 100 µM
- GI50 (EKVX NSCLC): 0.312 µM
- TGI (EKVX NSCLC): 25.5 µM
- GI50 (UACC-257 melanoma): 18.9 µM
- TGI (UACC-257 melanoma): 48 µM
- GI50 (M14 melanoma): 13.2 µM
- TGI (M14 melanoma): 31.9 µM
- GI50 (HT29 colon): 17.5 µM
- TGI (HT29 colon): 58.5 µM
- GI50 (OVCAR-3 ovarian): 7.32 µM
- TGI (OVCAR-3 ovarian): 24.9 µM
- GI50 (NCI/ADR-RES ovarian): 34.1 µM
- TGI (NCI/ADR-RES ovarian): > 100 µM
- GI50 (OVCAR-8 ovarian): 15.8 µM
- TGI (OVCAR-8 ovarian): 35 µM
- GI50 (COLO 205 colon): 26.2 µM
- TGI (COLO 205 colon): 70.4 µM
- GI50 (CCRF-CEM leukemia): 14.9 µM
- TGI (CCRF-CEM leukemia): 28.2 µM
- GI50 (A549 NSCLC): 11.1 µM
- TGI (A549 NSCLC): 30.2 µM
- GI50 (MDA-MB-435 melanoma): 31 µM
- TGI (MDA-MB-435 melanoma): 87 µM
- GI50 (NCI-H23 lung): 18.2 µM
- TGI (NCI-H23 lung): 40.6 µM
- GI50 (IGROV1 ovarian): 0.683 µM
- TGI (IGROV1 ovarian): 8.36 µM
- GI50 (K-562 leukemia): 23.9 µM
- TGI (K-562 leukemia): 80.6 µM
- GI50 (SF-539 CNS): 15.1 µM
- TGI (SF-539 CNS): 29.3 µM
- GI50 (MDA-MB-231 breast): 13.7 µM
- TGI (MDA-MB-231 breast): 35.4 µM
- GI50 (BT-549 breast): 16.8 µM
- TGI (BT-549 breast): 35.7 µM
- GI50 (ACHN renal): 0.378 µM
- TGI (ACHN renal): 18 µM
- GI50 (SF-268 CNS): 15.1 µM
- TGI (SF-268 CNS): 45.6 µM
- GI50 (A498 renal): 2.11 µM
- TGI (A498 renal): 20.1 µM
- GI50 (SNB-19 CNS): 27 µM
- TGI (SNB-19 CNS): 73.3 µM
- GI50 (KM12 colon): 18.8 µM
- TGI (KM12 colon): 36.3 µM
- GI50 (NCI-H460 NSCLC): 14.8 µM
- TGI (NCI-H460 NSCLC): 30 µM
- GI50 (SR leukemia): 2.45 µM
- TGI (SR leukemia): 10.9 µM
- GI50 (CAKI-1 renal): 3.49 µM
- TGI (CAKI-1 renal): 21.3 µM
- GI50 (NCI-H226 lung): 5.39 µM
- TGI (NCI-H226 lung): 26.3 µM
- GI50 (PC-3 prostate): 34.1 µM
- TGI (PC-3 prostate): 98.8 µM
- GI50 ([…]-0 renal): 12.7 µM
- TGI (786-0 renal): 28.8 µM
- GI50 (SNB-75 CNS): 17.6 µM
- TGI (SNB-75 CNS): 45.9 µM
- GI50 (NCI-H322M lung): 0.109 µM
- TGI (NCI-H322M lung): 16.4 µM
- GI50 (MALME-3M melanoma): 11.7 µM
- TGI (MALME-3M melanoma): 24.1 µM
- GI50 (SF-295 CNS): 29.5 µM
- TGI (SF-295 CNS): > 100 µM
- GI50 (HOP-92 NSCLC): 10.2 µM
- TGI (HOP-92 NSCLC): 33.1 µM
- GI50 (HL-60(TB) leukemia): 26.7 µM
- TGI (HL-60(TB) leukemia): 41.6 µM
- GI50 (NCI-H522 lung): 0.242 µM
- TGI (NCI-H522 lung): 9.32 µM
- GI50 (T-47D breast): 11.5 µM
- TGI (T-47D breast): 82 µM
- GI50 (DU-145 prostate): 14.1 µM
- TGI (DU-145 prostate): 44.9 µM
- GI50 (MCF7 breast): 19.7 µM
- TGI (MCF7 breast): > 100 µM
- GI50 (HCC-2998 colon): 19.3 µM
- TGI (HCC-2998 colon): 35.1 µM
- GI50 (MDA-MB-468 breast): 0.0243 µM
- TGI (MDA-MB-468 breast): 0.0646 µM
- GI50 (SW-620 colon): 28.5 µM
- TGI (SW-620 colon): 61.6 µM
- GI50 (HCT-15 colon): 25.2 µM
- TGI (HCT-15 colon): 82 µM
- GI50 (LOX IMVI melanoma): 14.7 µM
- TGI (LOX IMVI melanoma): 28.1 µM
- GI50 (OVCAR-5 ovarian): 26.2 µM
- TGI (OVCAR-5 ovarian): 74.1 µM
